Drawing on patent US20260015358A1, “BICYCLIC DERIVATIVES, COMPOSITIONS AND USES THEREOF” (Danatlas Pharmaceuticals Co., Ltd., priority 2023, published 2026), this text covers IC50 for seven compounds.

The target of assay [1] is T1, WRN [UniPro: Q14191 (WRN_HUMAN), N500-C946] (Homo sapiens (Human), UniProt Q14191). The experiment in a line: WRN unwinding assay (FORKF DNA, fluorescence). Format: biochemical. As to conditions: Table 14.
In assay [2] the target is T1, WRN [UniPro: Q14191 (WRN_HUMAN), N500-C946]. The experiment in a line: WRN ATPase assay (ADP-Glo). As to conditions: WRN enzymatic activity assay. Format: biochemical. A general note: In ADP-Glo the light output rises with the ADP produced.

T1 sequence (Q14191 500-946): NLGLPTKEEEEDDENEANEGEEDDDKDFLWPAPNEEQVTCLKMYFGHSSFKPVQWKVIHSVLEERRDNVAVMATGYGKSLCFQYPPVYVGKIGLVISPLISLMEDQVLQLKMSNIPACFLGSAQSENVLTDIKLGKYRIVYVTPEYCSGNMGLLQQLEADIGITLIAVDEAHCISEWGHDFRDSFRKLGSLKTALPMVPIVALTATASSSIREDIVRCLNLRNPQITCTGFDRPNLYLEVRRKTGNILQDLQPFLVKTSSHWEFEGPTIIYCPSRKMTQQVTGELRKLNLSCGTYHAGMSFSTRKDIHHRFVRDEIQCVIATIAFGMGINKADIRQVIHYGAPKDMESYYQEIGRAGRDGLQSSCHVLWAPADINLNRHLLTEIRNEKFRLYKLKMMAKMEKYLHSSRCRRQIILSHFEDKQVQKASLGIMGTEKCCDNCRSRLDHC

In the case of `CCc1c(N2CCN(C(=O)CNC(=O)c3ccccc3Br)CC2)c(=O)n2nc(C3=CCOCC3)nc2n1CC(=O)Nc1ccc(C(F)(F)F)cc1Cl` [Example 113, 2-Bromo-N-(2-(4-(4-(2-((2-chloro-4-(trifluoromethyl)phenyl)amino)-2-oxoethyl)-2-(3,6-dihydro-2H-pyran-4-yl)-5-ethyl-7-oxo-4,7-dihydro-[1,2,4]triazolo[1,5-a]pyrimidin-6-yl)piperazin-1-yl)-2-oxoethyl)benzamide], the IC50 in assay [1] and in assay [2] was less than 100 nM throughout.
Consider `CCc1c(N2CCN(C(=O)CNC(=O)c3ccnn3C)CC2)c(=O)n2nc(C3=CCOCC3)nc2n1CC(=O)Nc1ccc(C(F)(F)F)cc1Cl` [Example 114, N-(2-(4-(4-(2-((2-Chloro-4-(trifluoromethyl)phenyl)amino)-2-oxoethyl)-2-(3,6-dihydro-2H-pyran-4-yl)-5-ethyl-7-oxo-4,7-dihydro-[1,2,4]triazolo[1,5-a]pyrimidin-6-yl)piperazin-1-yl)-2-oxoethyl)-1-methyl-1H-pyrazole-5-carboxamide], for which the IC50 in assay [1] and in assay [2] was less than 100 nM throughout.
For `CCc1c(N2CCN(C(=O)CNC(=O)c3cc(F)cc(F)c3)CC2)c(=O)n2nc(C3=CCOCC3)nc2n1CC(=O)Nc1ccc(C(F)(F)F)cc1Cl` [Example 115, N-(2-(4-(4-(2-((2-Chloro-4-(trifluoromethyl)phenyl)amino)-2-oxoethyl)-2-(3,6-dihydro-2H-pyran-4-yl)-5-ethyl-7-oxo-4,7-dihydro-[1,2,4]triazolo[1,5-a]pyrimidin-6-yl)piperazin-1-yl)-2-oxoethyl)-3,5-difluorobenzamide], the IC50 in assay [1] and in assay [2] was less than 100 nM throughout.
Take `CCc1c(N2CCN(C(=O)CNC(=O)c3cccc(F)c3F)CC2)c(=O)n2nc(C3=CCOCC3)nc2n1CC(=O)Nc1ccc(C(F)(F)F)cc1Cl` [Example 116, N-(2-(4-(4-(2-((2-Chloro-4-(trifluoromethyl)phenyl)amino)-2-oxoethyl)-2-(3,6-dihydro-2H-pyran-4-yl)-5-ethyl-7-oxo-4,7-dihydro-[1,2,4]triazolo[1,5-a]pyrimidin-6-yl)piperazin-1-yl)-2-oxoethyl)-2,3-difluorobenzamide]: the IC50 in assay [1] and in assay [2] was less than 100 nM each time.
Regarding `CCc1c(N2CCN(C(=O)CNC(=O)c3ccc(F)cc3F)CC2)c(=O)n2nc(C3=CCOCC3)nc2n1CC(=O)Nc1ccc(C(F)(F)F)cc1Cl` [Example 117, N-(2-(4-(4-(2-((2-Chloro-4-(trifluoromethyl)phenyl)amino)-2-oxoethyl)-2-(3,6-dihydro-2H-pyran-4-yl)-5-ethyl-7-oxo-4,7-dihydro-[1,2,4]triazolo[1,5-a]pyrimidin-6-yl)piperazin-1-yl)-2-oxoethyl)-2,4-difluorobenzamide], the IC50 in assay [1] and in assay [2] was less than 100 nM in each case.
As to `CCc1c(N2CCN(C(=O)CNC(=O)c3cc(F)ccc3F)CC2)c(=O)n2nc(C3=CCOCC3)nc2n1CC(=O)Nc1ccc(C(F)(F)F)cc1Cl` [Example 118, N-(2-(4-(4-(2-((2-Chloro-4-(trifluoromethyl)phenyl)amino)-2-oxoethyl)-2-(3,6-dihydro-2H-pyran-4-yl)-5-ethyl-7-oxo-4,7-dihydro-[1,2,4]triazolo[1,5-a]pyrimidin-6-yl)piperazin-1-yl)-2-oxoethyl)-2,5-difluorobenzamide], the IC50 in assay [1] and in assay [2] was less than 100 nM in each case.
Turning to `CCc1c(N2CCN(C(=O)CNC(=O)c3ccc(OC)cc3)CC2)c(=O)n2nc(C3=CCOCC3)nc2n1CC(=O)Nc1ccc(C(F)(F)F)cc1Cl` [Example 119, N-(2-(4-(4-(2-((2-Chloro-4-(trifluoromethyl)phenyl)amino)-2-oxoethyl)-2-(3,6-dihydro-2H-pyran-4-yl)-5-ethyl-7-oxo-4,7-dihydro-[1,2,4]triazolo[1,5-a]pyrimidin-6-yl)piperazin-1-yl)-2-oxoethyl)-4-methoxybenzamide], the IC50 in assay [1] and in assay [2] was less than 100 nM each time.
